Measured values: PMC11548477, “Cathepsin B- and L-like Protease Activities Are Induced During Developmental Barley Leaf Senescence” (Plants, 2024)
Like-named read-outs stand apart in the source and are kept apart here. Where a SMILES comes first, the peptide text is derived from it. [ ]: non-standard residue; d: D form. The star is where a group is joined. Sta = CC(C)C[C@H](N)[C@@H](O)CC(=O)O; Isovaleryl = CC(C)CC(=O)*

Assays:
[1] = molecular target: aminopeptidase B and cathepsin H-like activity (R-AMC cleavage) in crude protein extract from barley leaves; test: R-AMC cleavage by crude protein extract from barley leaves; type: biochemical, Hordeum vulgare; settings: for IC50 / inhibition of R-AMC cleavage: week-3 leaf extract; for concentration up to which no activity on R-AMC cleavage was seen: week-3 leaf samples
[2] = tested on: cathepsin B- and L-like activity (Z-FR-AMC cleavage) in crude protein extract from barley leaves; test: Z-FR-AMC cleavage by crude protein extract from barley leaves; type: biochemical, Hordeum vulgare
Experimental: (§1) Frozen leaves were homogenized with a pre-chilled pestle and mortar in cold extraction buffer (0.1 M Tris–HCl, pH 7.4, 2 mM DTT) at a ratio of 167 mg of leaves:1 mL buffer. The homogenate was centrifugated at 20,000× g for 30 min at 4 °C. The supernatant, which was kept in an ice bath, was used as a sample for measurements of peptidase activity and protein content.
(§2) Fluorogenic substrates Z-FR-AMC to determine cathepsin B- and L-like activity, and Z-RR-AMC to determine cathepsin B-like activity, were used. These substrates show fluorescence when AMC is released as a consequence of the hydrolysis of the Arg-AMC bond. The emitted fluorescence was detected with a SpectraMax M2 microplate reader (Molecular Devices, San Jose, CA, USA) with λex = 360 nm and λem = 460 nm. Before use, the substrates were dissolved in DMSO at 10 mM and frozen at −20 °C. The measurements were made in 96-well black microplates (PerkinElmer Inc, Waltham, MA, USA), and each well contained a 100 μL final volume of an appropriate 0.1 M buffer with DTT (2 mM), extract (1.6 mg of fresh weight), and substrate (25 μM). The reaction was initiated by the addition of the substrate. The final concentration of DMSO in microplate wells was 1% in all the assays. The assays were conducted at room temperature, and relative fluorescence readings were recorded over a period of 10 min.
(§3) For the inhibition assays, an inhibitor (1 µL of stock solution in DMSO) at different concentrations was added to the reaction mixture. For all inhibitors tested, the concentration of inhibitor that caused 50% inhibition of the enzymatic reaction (IC50) was calculated by plotting % inhibition against the logarithm of inhibitor concentration (at least six points). The data are presented as the mean values of at least three independent experiments.

[3] = tested on: cathepsin B-like activity (Z-RR-AMC cleavage) in crude protein extract from barley leaves; test: Z-RR-AMC cleavage by crude protein extract from barley leaves; type: biochemical, Hordeum vulgare
Experimental: as §1, §2, §3

[4] = tested on: aminopeptidase in barley extracts; parameters: method as in PMID 10681066, PMID 21787929; settings: cited from earlier work
[5] = tested on: aminopeptidase in alfalfa extracts; parameters: method as in PMID 10681066, PMID 21787929; settings: cited from earlier work
[6] = tested on: 43 kDa DCG-04-labeled cysteine protease band (cathepsin L-like protease or proteases); test: inhibition of DCG-04 binding (activity-based labeling), 43 kDa band; parameters: species or system Hordeum vulgare; settings: 2.5 μM DCG-04, pH 5.5, 3 h, week-4 leaf extract; for IC50: densitometric analysis of blots
Experimental: (§4) The protein extracts of barley leaves obtained 4 weeks after flowering were preincubated with different concentrations of the inhibitors and proteins were labeled with 2.5 μM DCG-04 at pH 5.5 for 3 h. DMSO (solvent for inhibitors) was used as a control.
(§5) Densitometric analysis was based on 2 blots (mean values ± S.D.); data were normalized to the control value (DMSO solvent without inhibitor). The chemical structures of the inhibitors and calculated values of iLogP are shown on the right side of the figure.
(§6) Protein extracts from barley leaves (67 mg of fresh weight) were incubated with 2.5 μM DCG-04 in 0.1 M citrate buffer, pH 5.5, containing 2 mM DTT. When cysteine protease inhibitors E-64 and CA-074 were used, extracts were preincubated with the inhibitors for 10 min before addition of DCG-04. […] After the incubation, reactions were stopped and proteins were precipitated with inclusion of 100 mM NaCl, along with 80% acetone for rapid precipitation. The pellets were mixed with Laemmli loading buffer and boiled for 5 min [63]. Proteins were then separated on ready-made ExpressPlus^TM 4–12% acrylamide gels (GenScript Inc., Piscataway, NJ, USA) in Tris-MOPS SDS-PAGE Running Buffer (GenScript). After SDS-PAGE, proteins were transblotted onto nitrocellulose membrane (BioTrace™ NT nitrocellulose transfer membrane, Cytiva Life Sciences, Marlborough, MA, USA) and blocked for 1 h in 5% non-fat milk in 20 mM Tris-buffered saline (150 mM NaCl), pH 7.4, containing 0.1% Tween-20 (TBST). The membranes were washed 3 × 10 min in TBST and then incubated with streptavidin-HRP (dilution 1:2000 in 1% non-fat milk in TBST) for 1 h and washed again 3 × 10 min in TBST. The membranes were developed using the SuperSignal™ West Pico PLUS Chemiluminescent Substrate (Thermo Scientific, Rockford, IL, USA) and images were obtained using GeneTools by Syngene on a GeneSys imaging platform (Syngene, Frederick, MD, USA). Luminescent signal intensity was calculated by raw volume using GeneTools analysis Version 4.0 software from Syngene.

[7] = molecular target: 38 kDa DCG-04-labeled cysteine protease band (cathepsin B-like protease(s)); test: inhibition of DCG-04 binding (activity-based labeling), 38 kDa band; parameters: species or system Hordeum vulgare; settings: 2.5 μM DCG-04, pH 5.5, 3 h, week-4 leaf extract; for IC50: densitometric analysis of blots
Experimental: as §4, §5, §6

[8] = tested on: caseinolytic protease activity of extract obtained from week-4 barley leaves; test: caseinolytic (total) protease activity with casein-FITC in barley leaf extract; type: biochemical, Hordeum vulgare; settings: casein-FITC substrate; extract of week-4 barley leaves; pH 7.4
Experimental: as §1, §3

[9] = tested on: aleurain; parameters: method as in PMID 16669011; settings: 10 μM leupeptin; cited from earlier work
[10] = pH 7.4, 'No inhibition up to X' given as > X
[11] = pH 7.4, week-4 leaf extract, 'No inhibition up to X' given as > X, read-out: IC50, Z-FR-AMC cleavage
[12] = pH 7.4, week-4 leaf extract, 'No inhibition up to X' given as > X, read-out: IC50, Z-RR-AMC cleavage
[13] = pH 5.5, 'No inhibition up to X' given as > X
[14] = pH 5.5, week-4 leaf extract, read-out: IC50, Z-FR-AMC cleavage
[15] = pH 7.4, week-4 leaf extract, read-out: IC50, Z-FR-AMC cleavage
[16] = pH 5.5, week-4 leaf extract, read-out: IC50, Z-RR-AMC cleavage
[17] = pH 7.4, week-4 leaf extract, read-out: IC50, Z-RR-AMC cleavage

IC50 [2, 11] | IC50 [3, 12] | IC50 [2, 14] | IC50 [2, 15] | concentration that totally blocks DCG-04 binding to the 43 kDa band [6] | IC50 [6] | IC50 [3, 16] | IC50 [3, 17] | SMILES | IC50 [1, 10] | also measured
 |  |  |  |  |  |  |  | c1cnc2c(c1)ccc1cccnc12 [1,10-Phenanthroline] |  | IC50 ([1]; pH not given): 560 ± 110 µM; IC50 ([2]; pH not given, week-4 leaf extract, read-out: IC50, Z-FR-AMC cleavage): 8900 ± 300 µM; IC50 ([3]; pH not given, week-4 leaf extract, read-out: IC50, Z-RR-AMC cleavage): 3100 ± 200 µM
> 1000 µM | > 1000 µM |  |  |  |  |  |  | CC(C)C[C@H](NC(=O)[C@@H](O)[C@H](N)Cc1ccccc1)C(=O)O [Bestatin] | 580 ± 120 µM | concentration required for complete inhibition of aminopeptidase [4]: 0.1 mM; concentration required for complete inhibition of aminopeptidase [5]: 0.1 mM
 |  | 0.12 ± 0.0143 µM | 0.0117 ± 0.0026 µM | > 6 µM | 0.29 ± 0.11 µM | 0.0906 ± 0.0122 µM | 0.0116 ± 0.0035 µM | O=C(NCc1ccccc1)C(Cc1ccccc1)NC(=O)C1OC1C(=O)NCCc1ccc(O)cc1 [CAA0225, (2S,3S)-oxirane-2,3-dicarboxylic acid 2-[((S)-1-benzylcarbamoyl-2-phenyl-ethyl)-amide] 3-{[2-(4-hydroxy-phenyl)-ethyl]-amide}] | > 200 µM | IC50 [1, 13]: > 200 µM; concentration up to which no activity on R-AMC cleavage was seen ([1]; pH not given): > 0.2 mM; effect on DCG-04 binding to the 38 kDa band [7]: did not block binding
 |  |  |  |  |  |  |  | CCOC(=O)[C@H]1O[C@@H]1C(=O)N[C@@H](CC(C)C)C(=O)N[C@@H](Cc1ccc(O)cc1)C(=O)NCCCCCC(=O)N[C@@H](CCCCNC(=O)CCCC[C@@H]1SC[C@@H]2NC(=O)N[C@@H]21)C(N)=O [DCG-04] |  | IC50 ([2]; preliminary experiments, barley leaf extracts, pH not stated, read-out: IC50, proteolytic activity with Z-FR-AMC): 1.8 ± 0.4 µM; IC50 ([3]; preliminary experiments, barley leaf extracts, pH not stated, read-out: IC50, proteolytic activity with Z-RR-AMC): 1.8 ± 0.4 µM
 |  | 0.0123 ± 0.0028 µM | 0.0245 ± 0.0042 µM | 1 µM | 0.048 ± 0.0122 µM | 0.0062 ± 0.0017 µM | 0.0081 ± 0.0019 µM | CC(C)C[C@H](NC(=O)[C@H]1O[C@@H]1C(=O)O)C(=O)NCCCCNC(=N)N [E-64, trans-epoxysuccinyl-L-leucylamido-(4-guanidino) butane] |  | inhibition of R-AMC cleavage ([1]; at 0.2–200 µM, pH 7.4): 20–25% inhibition at 0.2–200 µM; inhibition of R-AMC cleavage ([1]; at 1–200 µM, pH 5.5): 40–45% inhibition at 1–200 µM; IC50 [8]: 0.0644 ± 0.0031 µM; concentration that totally blocks DCG-04 binding to the 38 kDa band [7]: 1 µM; IC50 [7]: 0.0464 ± 0.0091 µM
> 200 µM | > 200 µM |  |  |  |  |  |  | CC(C)CC(=O)N[C@H](C(=O)N[C@H](C(=O)N[C@@H](CC(C)C)[C@@H](O)CC(=O)N[C@@H](C)C(=O)N[C@@H](CC(C)C)[C@@H](O)CC(=O)O)C(C)C)C(C)C [Pepstatin A] (Isovaleryl-VV[Sta]A[Sta]-OH) | > 200 µM | 

SMILES | IC50 [2, 11] | IC50 [3, 12] | IC50 [2, 14] | IC50 [2, 15] | concentration that totally blocks DCG-04 binding to the 43 kDa band [6] | IC50 [6] | IC50 [3, 16] | IC50 [3, 17] | IC50 [1, 10] | also measured
CCCNC(=O)[C@H]1O[C@@H]1C(=O)N[C@H](C(=O)N1CCC[C@H]1C(=O)O)[C@@H](C)CC [CA-074, (2S)-1-[(2S,3S)-3-methyl-2-[[(2S,3S)-3-(propylcarbamoyl)oxirane-2-carbonyl]amino]pentanoyl]pyrrolidine-2-carboxylic acid] |  |  | 11.3 ± 2.2 µM | 31 ± 5.6 µM | > 100 µM | 26.4 ± 2.8 µM | 22.7 ± 5.3 µM | 80.7 ± 12.4 µM | > 200 µM | IC50 [1, 13]: > 200 µM; concentration up to which no activity on R-AMC cleavage was seen ([1]; pH not given): > 0.2 mM; IC50 [7]: 1.8 ± 0.6 µM
CC(=O)N[C@@H](CC(C)C)C(=O)N[C@@H](CC(C)C)C(=O)N[C@H](C=O)CCCNC(=N)N [Leupeptin] |  | 610 ± 30 µM |  |  |  |  |  |  | > 400 µM | inhibition of Z-FR-AMC cleavage ([2]; at 0.4 mM, pH 7.4, week-4 leaf extract): 30% inhibition at 0.4 mM; inhibition of aleurain [9]: ~ 75%
O=S(=O)(F)Cc1ccccc1 [PMSF, Phenylmethylsulfonyl fluoride] | > 2000 µM |  |  |  |  |  |  |  | > 2000 µM | inhibition of Z-RR-AMC cleavage ([3]; at 2 mM, pH 7.4, week-4 leaf extract): 30% inhibition at 2 mM
